Three molecules from ChEMBL document CHEMBL3751701, “Class I and Class II Lanthipeptides Produced by Bacillus spp” (2015) can be followed below.

What all share (type): functional
One experiment concerns Lactococcus lactis. Put plainly: Antibacterial activity against Lactococcus lactis MG1614 by agar diffusion assay. For orientation: In agar diffusion tests the substance spreads into inoculated agar from a disc or well.
The subject of another experiment is Micrococcus luteus. Put plainly: Antibacterial activity against Micrococcus luteus […] 8166 by agar diffusion assay.
Experiment [1] deals with Staphylococcus epidermidis. As to the kind of experiment: Antibacterial activity against Staphylococcus epidermidis ATCC 1228 after 24 hrs by microdilution method. Particulars: ATCC 1228, 24 h.
Another experiment has as its system Listeria innocua. Put plainly: Antibacterial activity against Listeria innocua ATCC 33090 after 24 hrs by microdilution method. Particulars: ATCC 33090, 24 h. In general terms: Dilution methods test growth across graded concentrations, often in twofold steps.
The test system of experiment [2] is Staphylococcus aureus. As to the kind of experiment: Antibacterial activity against methicillin-resistant Staphylococcus aureus ATCC 43300 after 24 hrs by microdilution method. Particulars: ATCC 43300, 24 h.
The test system of experiment [3] is Enterococcus faecalis. Put plainly: Antibacterial activity against Enterococcus faecalis ATCC 29212 after 24 hrs by microdilution method. Particulars: ATCC 29212, 24 h.
In experiment [4] the test system is Staphylococcus aureus. Put plainly: Antibacterial activity against Staphylococcus aureus RFB127 after 24 hrs by microdilution method. Particulars: RFB127, 24 h.
A further experiment concerns Streptococcus agalactiae. As to the kind of experiment: Antibacterial activity against Streptococcus agalactiae RFB141 after 24 hrs by microdilution method. Particulars: RFB141, 24 h.
The next experiment concerns Enterococcus faecium. As to the kind of experiment: Antibacterial activity against Enterococcus faecium RFB128 after 24 hrs by microdilution method. Particulars: RFB128, 24 h.
The next experiment has as its system Priestia megaterium. Put plainly: Antibacterial activity against Bacillus megaterium RFB124 after 24 hrs by microdilution method. Particulars: RFB124, 24 h.
Experiment [5] has as its system Kocuria rhizophila. As to the kind of experiment: Antibacterial activity against Micrococcus luteus ATCC 9341 after 24 hrs by microdilution method.
In experiment [6] the test system is Listeria monocytogenes. As to the kind of experiment: Antibacterial activity against Listeria monocytogenes LMG 23905 after 24 hrs by microdilution method. Particulars: LMG 23905, 24 h.
A further experiment deals with Bacillus spizizenii. As to the kind of experiment: Antibacterial activity against Bacillus subtilis ATCC 6633 after 24 hrs by microdilution method. Particulars: ATCC 6633, 24 h.
In experiment [7] the test system is Listeria monocytogenes. Put plainly: Antibacterial activity against Listeria monocytogenes LMG 21263 after 24 hrs by microdilution method. Particulars: LMG 21263, 24 h.
In a further experiment the test system is Bacillus cereus. Put plainly: Antibacterial activity against Bacillus cereus RFB125 after 24 hrs by microdilution method. Particulars: RFB125, 24 h.
For experiment [8], the system named is Staphylococcus aureus. As to the kind of experiment: Antibacterial activity against Staphylococcus aureus ATCC 25923 after 24 hrs by microdilution method. Particulars: ATCC 25923, 24 h.
For experiment [9], the system named is Kocuria rhizophila. Put plainly: Antibacterial activity against Micrococcus luteus ATCC 9341 by microdilution method.
The test system of experiment [10] is Enterococcus faecalis. Put plainly: Antibacterial activity against Enterococcus faecalis ATCC 29212 by microdilution method.
Experiment [11] has as its system Staphylococcus aureus. As to the kind of experiment: Antibacterial activity against methicillin-resistant Staphylococcus aureus ATCC 43300 by microdilution method.
Experiment [12] concerns Enterococcus faecalis. As to the kind of experiment: Antibacterial activity against Enterococcus faecalis ATCC 51299 by microdilution method.
The test system of experiment [13] is Staphylococcus aureus. As to the kind of experiment: Antibacterial activity against Staphylococcus aureus ATCC 29213 by microdilution method.

Usually MIC stands for the lowest concentration found to suppress growth.

Values after ≈ are worked out from the molar mass of the structure shown.

Consider `C=C(NC(=O)[C@H](NC(=O)[C@@H](CCCCN)NC(=O)[C@@H]1CSC(C)C2NC(=O)[C@@H](CC(C)C)NC(=O)C(NC(=O)[C@H](CCC(N)=O)NC(=O)[C@H](CC(C)C)NC(=O)[C@H](Cc3ccccc3)NC(=O)[C@@H]3CSC(C)C(NC(=O)[C@H](NC(=O)[C@@H]4CSC(C)C(NC(=O)[C@H]5CSC[C@H](NC(=O)[C@H](CCCCN)NC(=O)[C@@H](N)Cc6c[nH]c7ccccc67)C(=O)N[C@@H](CCC(=O)O)C(=O)NC(=C)C(=O)N[C@@H](CC(C)C)C(=O)N5)C(=O)N5CCC[C@@H]5C(=O)NCC(=O)N4)C(C)C)C(=O)NCC(=O)N[C@@H](C)C(=O)N[C@@H](CC(C)C)C(=O)N[C@@H](CCC(N)=O)C(=O)N/C(=C\C)C(=O)N3)C(C)SC[C@@H](NC2=O)C(=O)N[C@H](CC(N)=O)C(=O)N1)[C@H](C)CC)C(=O)N[C@@H](CCCCN)C(=O)O` (stereo partly specified), for which the minimal inhibitory concentration (MIC) against Lactococcus lactis worked out at 0.301 µM (≈ 1 µg/mL); against Micrococcus luteus, 0.0151 µM (≈ 0.0501 µg/mL).
For `C/C=C(\NC(=O)[C@H](Cc1cnc[nH]1)NC(=O)/C(=C/C)NC(=O)[C@@H]1CCCN1C(=O)[C@@H]1CSC[C@@H]2NC(=O)[C@H](CC(C)C)NC(=O)[C@@H](NC(=O)[C@H]3CSC[C@@H](NC(=O)[C@@H](NC(=O)CNC(=O)[C@H](CCCNC(=N)N)NC(=O)[C@H](CCC(N)=O)NC(=O)[C@H](CCC(=O)O)NC(=O)[C@H](C)N)[C@H](C)CC)C(=O)N[C@@H](CCC(N)=O)C(=O)NCC(=O)N[C@H](CC(N)=O)C(=O)N[C@H](CC(=O)O)C(=O)NCC(=O)N[C@H](CCCCN)C(=O)N[C@@H](CC(C)C)C(=O)N3)CSC[C@@H](NC(=O)[C@H](CCC(=O)O)NC(=O)[C@H](Cc3c[nH]c4ccccc34)NC2=O)C(=O)NCC(=O)N[C@@H](CC(C)C)C(=O)N1)C(=O)N[C@@H](CS)C(=O)N[C@H](Cc1c[nH]c2ccccc12)C(=O)N[C@H](CS)C(=O)O`, the MIC in [1] turned out to be 2.8 µM (≈ 9.22 µg/mL); in the experiment on Listeria innocua, 0.7 µM (≈ 2.31 µg/mL); in the experiment on Staphylococcus aureus [2], 0.4 µM (≈ 1.32 µg/mL); with Enterococcus faecalis [3] it was 1.4 µM (≈ 4.61 µg/mL); against Staphylococcus aureus [4] it was 1.4 µM (≈ 4.61 µg/mL); against Streptococcus agalactiae, 2.8 µM (≈ 9.22 µg/mL). The minimum inhibitory concentration (MIC) came out at 0.1 µM (≈ 0.329 µg/mL) in the experiment on Enterococcus faecium; 0.4 µM (≈ 1.32 µg/mL) in the experiment with Priestia megaterium; 0.7 µM (≈ 2.31 µg/mL) in the experiment with Kocuria rhizophila [5]; 0.4 µM (≈ 1.32 µg/mL) in the experiment on Listeria monocytogenes [6]; 1.4 µM (≈ 4.61 µg/mL) against Bacillus spizizenii; 0.5 µM (≈ 1.65 µg/mL) against Listeria monocytogenes [7]. The MIC against Bacillus cereus came to 0.2 µM (≈ 0.659 µg/mL); in the experiment on Staphylococcus aureus [8] it was 2.8 µM (≈ 9.22 µg/mL).
Turning to `C=C(NC(=O)[C@H](NC(=O)[C@@H](CCCCN)NC(=O)[C@@H]1CSC(C)C2NC(=O)[C@@H]([C@H](C)CC)NC(=O)C(NC(=O)[C@@H](CCC(N)=O)NC(=O)[C@@H](CC(C)C)NC(=O)[C@@H](Cc3ccccc3)NC(=O)[C@@H]3CSC(C)C(NC(=O)[C@H](NC(=O)[C@@H]4CSC(C)C(NC(=O)[C@H]5CSC[C@@H](NC(=O)[C@@H](CCCCN)NC(=O)[C@H](N)Cc6c[nH]c7ccccc67)C(=O)N[C@H](CCC(=O)O)C(=O)NC(=C)C(=O)N[C@H](C(C)C)C(=O)N5)C(=O)N5CCC[C@@H]5C(=O)NCC(=O)N4)C(C)C)C(=O)NCC(=O)N[C@@H](CC(C)C)C(=O)N[C@@H](CC(C)C)C(=O)N[C@H](CCC(N)=O)C(=O)N/C(=C\C)C(=O)N3)C(C)SC[C@@H](NC2=O)C(=O)N[C@H](CC(N)=O)C(=O)N1)[C@H](C)CC)C(=O)N[C@@H](CCCCN)C(=O)O` (stereo partly specified), the MIC in the experiment with Kocuria rhizophila [9] was 1.16 µM (≈ 3.89 µg/mL); with Enterococcus faecalis [10], 4.84 µM (≈ 16.2 µg/mL); in the experiment with Staphylococcus aureus [11], 2.32 µM (≈ 7.77 µg/mL); with Enterococcus faecalis [12], 2.32 µM (≈ 7.77 µg/mL); in the experiment on Staphylococcus aureus [13] it was 1.16 µM (≈ 3.89 µg/mL).
